Measured values: the supplement of paper PMC10307832

Columns and labels:
Assay in all cases: relative viability (nuclei count vs DMSO), 5 days (fraction); higher = more cells survive
[1] = compound: CC1=NC=CC(=C1)C2=CC=C(C=C2)CC(=O)NC3=CC=C(C=C3)C4=CN=CC=C4 [Wnt-C59] + CC(=O)c1c(C)c2cnc(Nc3ccc(N4CCNCC4)cn3)nc2n(C2CCCC2)c1=O [Palbociclib] (partner 0.5 µM)
Procedure, shortened: (§1)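 Lung cancer cell lines, seeded in 1536-well plates, were treated the following day by pin tool with a single drug or with five library-drug doses (not always all listed) in √10 steps on top of a fixed anchor-drug dose. Cells were fixed and nuclei stained in one step after 5 days, and nuclei were counted. Relative viability is the nuclei count for treated wells divided by that for vehicle wells, reported as medians of duplicate plates.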

[2] = compound: CS(=O)(=O)CCNCc1ccc(-c2ccc3ncnc(Nc4ccc(OCc5cccc(F)c5)c(Cl)c4)c3c2)o1 [Lapatinib] + CC1(C)CCC(c2ccc(Cl)cc2)=C(CN2CCN(c3ccc(C(=O)NS(=O)(=O)c4ccc(N[C@H](CCN5CCOCC5)CSc5ccccc5)c(S(=O)(=O)C(F)(F)F)c4)cc3)CC2)C1 [Navitoclax] (partner 0.5 µM)
Procedure, shortened: as §1

[3] = compound: CS(=O)(=O)CCNCc1ccc(-c2ccc3ncnc(Nc4ccc(OCc5cccc(F)c5)c(Cl)c4)c3c2)o1 [Lapatinib] + Nc1ncn([C@H]2C[C@H](O)[C@@H](CO)O2)c(=O)n1 [Decitabine] (partner 2 µM)
Procedure, shortened: as §1

[4] = compound: CS(=O)(=O)CCNCc1ccc(-c2ccc3ncnc(Nc4ccc(OCc5cccc(F)c5)c(Cl)c4)c3c2)o1 [Lapatinib] + CCNC(=O)c1noc(-c2cc(C(C)C)c(O)cc2O)c1-c1ccc(CN2CCOCC2)cc1 [Luminespib] (partner 0.01 µM)
Procedure, shortened: as §1

Cell Line	relative viability ([1]; first compound 0.001 µM)	relative viability ([1]; first compound 0.01 µM)	relative viability ([1]; first compound 0.03162 µM)	relative viability ([1]; first compound 0.1 µM)	relative viability ([2]; first compound 0.02 µM)	relative viability ([2]; first compound 0.06325 µM)	relative viability ([2]; first compound 0.2 µM)	relative viability ([2]; first compound 0.6325 µM)	relative viability ([2]; first compound 2 µM)	relative viability ([3]; first compound 0.06325 µM)	relative viability ([3]; first compound 0.2 µM)	relative viability ([3]; first compound 0.6325 µM)	relative viability ([3]; first compound 2 µM)	relative viability ([4]; first compound 0.02 µM)	relative viability ([4]; first compound 0.06325 µM)	relative viability ([4]; first compound 0.2 µM)	relative viability ([4]; first compound 0.6325 µM)	relative viability ([4]; first compound 2 µM)	relative viability ([3]; first compound 0.02 µM)
HOP-62	0.468	0.403	0.49	0.493	0.672	0.993	1.09	1.1	0.99	0.224	0.21	0.203	0.219	0.839	0.949	0.932	0.869	1.01	
IA-LM					0.769	0.794	0.817	0.728	0.713										
LC-2-ad	0.484	0.509	0.536	0.505		0.415	0.446	0.394	0.264	0.807	0.715	0.834	0.692		0.865	1.2	0.988	0.942	
LCLC-97TM1	0.254	0.228	0.216	0.248			0.355	0.327	0.33	0.232	0.222	0.268	0.268			0.676	0.765	0.875	
LCLC-103H	0.462	0.509	0.487	0.472						0.657	0.652	0.775	0.666	0.954	0.82	0.877	0.891	0.852	0.764
LK-2	0.524	0.739	0.705	0.535	0.908		0.84	0.88	0.905		0.331	0.363	0.411			0.174	0.211	0.177	0.196
LOU-NH91	0.512	0.573	0.564	0.513	0.555	0.558	0.502	0.541	0.324	0.709	0.65	0.663	0.652	0.368	0.305	0.364	0.346	0.362	0.789
LU99A	0.451	0.372	0.446	0.417	0.829	0.63	0.805	0.886	0.725	0.73	0.859	0.896	0.721	0.253	0.248	0.285	0.251	0.244	0.903
LXF-289	0.624	0.551	0.602	0.606	0.901	0.928	0.957	0.94	0.85	0.377	0.354	0.385	0.408	0.709	0.459	0.603	0.603	0.65	0.358
NCI-H23	0.51	0.508	0.521	0.474			0.836	0.777	0.615		0.315	0.353	0.323			0.197	0.215	0.196	
NCI-H322M	0.465	0.495	0.427	0.447	1.25	1.07	1.09	1.16	1.09	0.552	0.648	0.567	0.555	0.883	0.6	0.758	0.753	0.633	0.632
NCI-H358	0.134	0.128	0.153	0.1						0.181	0.206	0.162	0.152		0.159		0.255	0.173	0.205
NCI-H522	0.912	1.04	1.15	0.892						0.645	0.647	0.683	0.664		1.09		1.03	0.794	
NCI-H596					0.978	0.95	0.922	0.97	0.706	0.979	0.793	1.04	0.957		0.879	1.04	0.944	0.756	
NCI-H650	0.276	0.344	0.302	0.323						0.319	0.328	0.324	0.343		0.81	0.729	0.862	0.854	
NCI-H661	0.409	0.357	0.436	0.387						0.474	0.489	0.387	0.423	0.887	0.925	0.814	0.807	0.584	0.48
NCI-H1299					1.05	1.06	1.05	1.01	1.06										
NCI-H1563														0.538	0.509	0.537	0.461	0.474	
NCI-H1623														0.429	0.437		0.456	0.408	
NCI-H1648	0.288	0.241	0.259	0.23						0.389	0.495	0.481	0.33						
NCI-H1703					0.908	0.943	1.03	1.33	0.996										
NCI-H2228	1.06	0.633	0.884	0.869	0.838	0.807	0.809	1.28	0.912					0.137	0.128	0.145	0.143	0.123	
NCI-H2342	0.491	0.488	0.55	0.504						0.694	0.618	0.691	0.638	0.579	0.607	0.665	0.692	0.703	0.706
SW 900	0.48	0.461	0.608	0.54						0.392	0.428	0.44	0.425		0.176	0.17	0.164	0.175	
